Data set [1] can be described thus: Antioxidant activity assessed as AAPH radical scavenging activity by measuring trolox equivalents preincubated for 30 mins followed by AAPH addition and measured every 2 mins for 2 hrs by ORAC assay. It is filed as functional.
Data set [2] has as its target Amyloid-beta precursor protein (Homo sapiens) (UniProt P05067). Kind of data set: Inhibition of amyloid beta (1 to 42 ) (unknown origin) self aggregation at 10 uM after 24 hrs by thioflavin-T fluorescence method relative to control.
The target in another data set is Acetylcholinesterase (Electrophorus electricus, UniProt O42275). The data set is described as follows: Inhibition of Electrophorus electricus AChE using acetylthiocholine iodide as substrate preincubated for 10 mins followed by substrate addition and measured after 10 mins by Ellman's method. A general note: In Ellman's method for cholinesterases, released thiocholine reacts with DTNB.
Sequence of Acetylcholinesterase (O42275 whole entry): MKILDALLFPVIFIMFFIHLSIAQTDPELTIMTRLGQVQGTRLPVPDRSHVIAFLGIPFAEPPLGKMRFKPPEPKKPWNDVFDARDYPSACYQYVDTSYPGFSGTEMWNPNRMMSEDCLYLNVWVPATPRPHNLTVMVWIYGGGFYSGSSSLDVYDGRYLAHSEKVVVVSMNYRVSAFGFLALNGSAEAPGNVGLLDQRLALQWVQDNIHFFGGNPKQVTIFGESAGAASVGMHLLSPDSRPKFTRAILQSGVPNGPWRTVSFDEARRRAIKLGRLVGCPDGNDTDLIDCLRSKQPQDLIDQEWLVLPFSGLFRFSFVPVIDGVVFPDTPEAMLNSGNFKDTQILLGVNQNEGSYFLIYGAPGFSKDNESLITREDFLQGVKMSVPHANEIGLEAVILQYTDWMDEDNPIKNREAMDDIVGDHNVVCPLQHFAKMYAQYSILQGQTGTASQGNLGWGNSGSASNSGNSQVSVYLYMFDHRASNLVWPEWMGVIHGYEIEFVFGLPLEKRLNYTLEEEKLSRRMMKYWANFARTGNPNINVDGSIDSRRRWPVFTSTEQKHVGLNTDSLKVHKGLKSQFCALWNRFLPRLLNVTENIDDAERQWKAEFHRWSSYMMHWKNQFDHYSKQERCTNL

Data set [3] is described as follows: Antioxidant activity assessed as reduction of ferric-tripyridyltriazine complex by measuring trolox equivalents at pH 3.5 after 30 mins under dark condition by FRAP assay. It is filed as functional.
Data set [4] concerns SH-SY5Y. Kind of data set: Neuroprotective activity against human SH-SY5Y cells assessed as inhibition of H2O2-induced cell death at 1 uM preincubated for 24 hrs followed by H2O2 treatment and measured after 24 hrs by MTT assay. It is filed as functional, cell-based. In general terms: Formazan colour is commonly taken as a measure of viable cells.
In data set [5] the test system is SH-SY5Y. The data set is described as follows: Cytotoxicity against human SH-SY5Y cells assessed as cell viability at 12.5 uM after 24 hrs by MTT assay. It is filed as cell-based.
For data set [6], the system named is SH-SY5Y. Kind of data set: Cytotoxicity against human SH-SY5Y cells assessed as cell viability at 5 uM after 24 hrs by MTT assay. It is filed as cell-based.
Data set [7] deals with SH-SY5Y. The data set is described as follows: Cytotoxicity against human SH-SY5Y cells assessed as reduction in cell viability at 25 uM after 24 hrs by MTT assay. It is filed as cell-based.
The subject of data set [8] is SH-SY5Y. The data set is described as follows: Cytotoxicity against human SH-SY5Y cells assessed as reduction in cell viability after 24 hrs by MTT assay. It is filed as cell-based.
The test system of data set [9] is SH-SY5Y. The data set is described as follows: Neuroprotective activity against human SH-SY5Y cells assessed as H2O2-induced cell death at 0.01 to 0.1 uM preincubated for 24 hrs followed by H2O2 treatment and measured after 24 hrs by MTT assay. It is filed as functional, cell-based.
Data set [10] relates to SH-SY5Y. The data set is described as follows: Neuroprotective activity against human SH-SY5Y cells assessed as inhibition of H2O2-induced cell death at 5 uM preincubated for 24 hrs followed by H2O2 treatment and measured after 24 hrs by MTT assay relative to control. It is filed as functional.

Calls of active or inactive are those of the source. The calls are words filed in the database; no cut-off is given here.

The record followed here is ChEMBL document CHEMBL4373635, “Synthesis of novel vanillin derivatives: novel multi-targeted scaffold ligands against Alzheimer's disease” (Medchemcomm, 2019).

Usually inhibition stands for how much of the control response was suppressed. Usually IC50 stands for the concentration at which inhibition is half-maximal.

Sequence of Amyloid-beta precursor protein (Homo sapiens) (P05067 whole entry): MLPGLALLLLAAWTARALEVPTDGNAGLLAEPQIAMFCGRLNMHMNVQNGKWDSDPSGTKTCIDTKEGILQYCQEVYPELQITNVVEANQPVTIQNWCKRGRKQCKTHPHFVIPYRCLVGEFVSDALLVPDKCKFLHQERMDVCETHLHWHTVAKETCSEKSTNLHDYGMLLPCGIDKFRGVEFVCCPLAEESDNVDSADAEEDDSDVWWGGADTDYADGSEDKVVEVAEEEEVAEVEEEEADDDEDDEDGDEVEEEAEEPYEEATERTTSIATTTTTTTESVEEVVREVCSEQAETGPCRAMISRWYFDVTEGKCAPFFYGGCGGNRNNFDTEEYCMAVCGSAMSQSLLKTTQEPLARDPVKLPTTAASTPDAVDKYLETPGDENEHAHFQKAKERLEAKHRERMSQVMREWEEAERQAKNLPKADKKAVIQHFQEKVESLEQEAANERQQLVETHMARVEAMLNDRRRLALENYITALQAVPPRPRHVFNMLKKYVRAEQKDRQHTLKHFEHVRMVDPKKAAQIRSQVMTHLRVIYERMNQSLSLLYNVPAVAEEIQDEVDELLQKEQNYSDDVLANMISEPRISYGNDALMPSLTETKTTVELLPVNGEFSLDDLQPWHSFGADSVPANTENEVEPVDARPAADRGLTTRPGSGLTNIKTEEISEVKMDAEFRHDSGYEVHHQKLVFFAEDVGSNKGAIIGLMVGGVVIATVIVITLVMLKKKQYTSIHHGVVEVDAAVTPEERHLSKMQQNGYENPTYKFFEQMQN

For `COc1cc(CNCCCN2C(=O)c3cccc4cccc(c34)C2=O)ccc1O`, the Activity was found to be 3.9 equiv in data set [1] and 0.26 equiv in [3]. The inhibition in [2] is 30.4%. Also, the 50% inhibitory concentration (IC50) against Acetylcholinesterase was 10.1 µM.

As for `COc1cc(/C=N/CCCN2C(=O)c3cccc4cccc(c34)C2=O)ccc1O`, the Activity amounted to 2.1 equiv in [1] and 0.07 equiv in [3]. At Acetylcholinesterase, this molecule returned an IC50 of 128 µM.

With `COc1cc(CNc2ccc(Nc3c4c(nc5ccccc35)CCCC4)cc2)ccc1O`, the result with SH-SY5Y [4] was Active. Further, the Activity entry in the data set on SH-SY5Y [5] was “Non-Toxic”; in [1], 6.4 equiv; in the data set with SH-SY5Y [6] it was “Non-Toxic”; in the data set on SH-SY5Y [7], “Toxic”; in data set [3], 1.54 equiv. Also, the inhibition in data set [2] stood at 77.1%. Moreover, the half-maximal inhibitory concentration (IC50) in the data set with SH-SY5Y [8] was found to be 45.1 µM; against Acetylcholinesterase, 2.13 µM. Besides, in the data set with SH-SY5Y [9], the outcome was inactive. In addition, in the data set on SH-SY5Y [10], the inhibition at 5 µM turned out to be 30%.

`COc1cc(CNCCCN2C(=O)c3cccc4cccc(c34)C2=O)cc(OC)c1O`: the Activity in [1] was 2 equiv; in data set [3], 1.45 equiv. In data set [2], this molecule displayed an inhibition of 33.2%. At Acetylcholinesterase, this molecule registered a half-inhibitory concentration (IC50) of 24.3 µM.
